For this experiment, the system named is Pyrenophora teres. The experiment is described as follows: Activity against net blotch of barley caused by Pyrenophora teres, 1 day protective application. It is filed as in vivo. The settings on record: individual active compound, barley seedlings "Hanna", assessed after 6 days. The protocol:
The active compounds, separately, were prepared as a stock solution comprising 25 mg of active compound which was made up to 10 ml using a mixture of acetone and/or DMSO and the emulsifier Uniperol® EL (wetting agent having an emulsifying and dispersing action based on ethoxylated alkylphenols) in a ratio by volume of solvent/emulsifier of 99:1. The mixture was then made up to 100 ml with water. The active compounds or mixtures were diluted or mixed with water to the stated concentration.
Activity against net blotch of barley caused by Pyrenophora teres, 1 day protective application
Leaves of potted barley seedlings of the “Hanna” cultivar were sprayed to runoff point with an aqueous suspension having the concentration of active compound stated below. 24 hours after the spray coating had dried on, the test plants were inoculated with an aqueous spore suspension of Pyrenophora [syn. Drechslera] teres, the net blotch pathogen. […] After 6 days, the extent of the development of the disease was determined visually in % infection of the total leaf area.
The visually determined percentages of infected leaf areas were converted into efficacies in % of the untreated control:
The efficacy (E) is calculated as follows using Abbot's formula: E=(1−[…] )·100 α corresponds to the fungal infection of the treated plants in % and β corresponds to the fungal infection of the untreated (control) plants in % […]

For the compound `CC1CCN(c2c(-c3c(F)cc(F)cc3F)c(Cl)nc3ncnn23)CC1` [I, 5-chloro-7-(4-methylpiperidin-1-yl)-6-(2,4,6-trifluorophenyl)[1,2,4]triazolo[1,5-a]pyrimidine], the “Efficacy in % of the untreated control” value is, setting by setting: (1.25 ppm in the spray liquor) 55 % of the untreated control; (5 ppm in the spray liquor) 78 % of the untreated control.

For the origin of these results see US20070191396A1, “Fungicidal mixtures” (BASF Aktiengesellschaft, priority 2004, published 2007).
